Residues, ends and D or L forms follow the SMILES beside them.

The data set can be described thus: Transdermal penetration through ex vivo mouse skin in a single-chamber diffusion cell, content by BCA kit. The class given is in vitro ADME, Kunming mice. As to conditions: collagen peptide 5 mg/ml in 0.9% NaCl, diffusion area 2.0 cm^2, 37.5° C. As for the experimental part:
1. Preparation of Mouse Skin Ex Vivo 10 Kunming mice of 20 to 22 g with half male and half […] were used in the experiment. After the mice were killed, the hairs on the abdomen were removed. Then the skin on the hair-removed area was peeled off, stripped of fat and tendons, and rinsed repeatedly with distilled water. After being washed, the mouse skins were rinsed with normal saline, then treated with 10% glycerol, and stored at −20° C. for use (use up within 7 days).
Single-chamber diffusion cell: The effective diffusion area of the diffusion cell is 2.0 cm^2, the volume of the receiving cell is 14 ml, the length of the custom-made stirrer is 1.4 cm, and the receiving solution is 0.9% NaCl solution.
The stored mouse skin was taken out, thawed, washed with normal saline, and sandwiched between the receiving chamber and the supplying chamber, with the medicated side facing the supplying chamber and the skin side facing the receiving chamber. The temperature of the water bath system was adjusted to 37.5° C., and the stirring speed was adjusted to 100 rpm/min. 0.9% NaCl solution pre-warmed at 37° C. was added to the receiving chamber and the air bubbles were exhausted, in order to reduce the interference, the inner surface of the mouse skin was firstly contacted with the receiving solution without medication and all the receiving solution was replaced. Then the 27 collagen peptides synthesized were prepared into 5 mg/ml solutions using 0.9% NaCl respectively, which were injected into the supplying chamber and firmly adhere to the mouse skin respectively. After 24 h, part of the receiving solution was absorbed with a syringe as the sample solution to determine the transdermal amount of collagen peptide.
The BCA kit method was used to determine the polypeptide content in the sample solution. […]
On to `CC(C)C[C@H](NC(=O)CNC(=O)[C@H](C)NC(=O)[C@@H](NC(=O)CNC(=O)[C@@H]1CCCN1C(=O)[C@H](CC(C)C)NC(=O)CNC(=O)[C@H](CCCNC(=N)N)NC(=O)[C@H](C)NC(=O)CNC(=O)[C@H](CCC(N)=O)NC(=O)[C@@H]1CCCN1C(=O)CNC(=O)[C@@H]1CCCN1C(=O)[C@@H]1CCCN1C(=O)CNC(=O)[C@H](CCCNC(=N)N)NC(=O)[C@H](CCC(=O)O)NC(=O)CNC(=O)[C@@H]1CCCN1C(=O)[C@H](CCCNC(=N)N)NC(=O)CNC(=O)[C@@H]1CCCN1C(=O)[C@H](CCCCN)NC(=O)CNC(=O)[C@H](C)NC(=O)[C@H](CCC(=O)O)NC(=O)CNC(=O)[C@H](CC(=O)O)NC(=O)[C@H](CC(=O)O)NC(=O)CNC(=O)[C@H](CC(N)=O)NC(=O)[C@H](CCCCN)NC(=O)CN)[C@@H](C)O)C(=O)N1CCC[C@H]1C(=O)O` [compound 2] (H-GKNGDDGEAGKPGRPGERGPPGPQGARGLPGTAGLP-OH; N-terminus and C-terminus assumed), for which the 24h penetration amount was 2097.44 µg.
With `CSCC[C@H](NC(=O)[C@H](CCC(N)=O)NC(=O)CNC(=O)[C@@H]1CCCN1C(=O)[C@H](C)NC(=O)CNC(=O)[C@H](CC(N)=O)NC(=O)[C@H](CCC(=O)O)NC(=O)CN)C(=O)NCC(=O)N1CCC[C@H]1C(=O)N[C@@H](CCCNC(=N)N)C(=O)NCC(=O)N[C@@H](CC(C)C)C(=O)N1CCC[C@H]1C(=O)NCC(=O)N[C@@H](CCC(=O)O)C(=O)N[C@@H](CCCNC(=N)N)C(=O)NCC(=O)N[C@@H](CCCNC(=N)N)C(=O)N1CCC[C@H]1C(=O)NCC(=O)N[C@@H](C)C(=O)N1CCC[C@H]1C(=O)NCC(=O)N1CCC[C@H]1C(=O)N[C@@H](C)C(=O)NCC(=O)N[C@@H](C)C(=O)N[C@@H](CCCNC(=N)N)C(=O)NCC(=O)N[C@@H](CC(N)=O)C(=O)N[C@@H](CC(=O)O)C(=O)NCC(=O)N[C@@H](C)C(=O)N[C@H](C(=O)O)[C@@H](C)O` [compound 5] (H-GENGAPGQMGPRGLPGERGRPGAPGPAGARGNDGAT-OH; N-terminus and C-terminus assumed) the figure was 2123.45 µg.
The value for `CSCC[C@H](NC(=O)[C@@H]1CCCN1C(=O)CNC(=O)[C@@H]1CCCN1C(=O)[C@@H]1CCCN1C(=O)CNC(=O)[C@H](CCCNC(=N)N)NC(=O)[C@H](CCC(=O)O)NC(=O)CNC(=O)[C@H](CO)NC(=O)[C@H](C)NC(=O)CNC(=O)[C@H](CO)NC(=O)[C@@H]1CCCN1C(=O)CNC(=O)[C@H](CCC(N)=O)NC(=O)[C@H](CCCCN)NC(=O)CNC(=O)[C@@H]1CCCN1C(=O)[C@H](CCC(=O)O)NC(=O)CN)C(=O)NCC(=O)N1CCC[C@H]1C(=O)N1CCC[C@H]1C(=O)NCC(=O)N[C@@H](CC(C)C)C(=O)N[C@@H](C)C(=O)NCC(=O)N1CCC[C@H]1C(=O)N1CCC[C@H]1C(=O)NCC(=O)N[C@@H](CCC(=O)O)C(=O)N[C@@H](CO)C(=O)NCC(=O)N[C@@H](CCCNC(=N)N)C(=O)N[C@@H](CCC(=O)O)C(=O)O` [compound 23] (H-GEPGKQGPSGASGERGPPGPMGPPGLAGPPGESGRE-OH; N-terminus and C-terminus assumed) was 2323.45 µg.
The value for `CSCC[C@H](NC(=O)[C@H](CCC(N)=O)NC(=O)CNC(=O)[C@@H]1CCCN1C(=O)[C@H](C)NC(=O)CNC(=O)[C@H](CC(N)=O)NC(=O)[C@H](CCC(=O)O)NC(=O)CNC(=O)[C@@H]1CCCN1C(=O)[C@H](CO)NC(=O)CNC(=O)[C@@H]1CCCN1C(=O)[C@H](CCC(=O)O)NC(=O)CNC(=O)[C@H](CCCCN)NC(=O)[C@@H]1CCCN1C(=O)CNC(=O)[C@H](C)NC(=O)[C@@H]1CCCN1C(=O)CNC(=O)[C@H](C)NC(=O)[C@H](CC(=O)O)NC(=O)CNC(=O)[C@H](CCCCN)NC(=O)[C@H](C)NC(=O)CN)C(=O)NCC(=O)N1CCC[C@H]1C(=O)N[C@@H](CCCNC(=N)N)C(=O)NCC(=O)N[C@@H](CC(C)C)C(=O)N1CCC[C@H]1C(=O)NCC(=O)N[C@@H](CCC(=O)O)C(=O)N[C@@H](CCCNC(=N)N)C(=O)O` [compound 4] (H-GAKGDAGPAGPKGEPGSPGENGAPGQMGPRGLPGER-OH; N-terminus and C-terminus assumed) was 2034.78 µg.
`CC(C)[C@H](NC(=O)[C@H](C)NC(=O)CNC(=O)[C@@H]1CCCN1C(=O)[C@@H]1CCCN1C(=O)CNC(=O)[C@@H]1CCCN1C(=O)[C@@H](NC(=O)CNC(=O)[C@H](CCCNC(=N)N)NC(=O)[C@H](CCC(=O)O)NC(=O)CN)C(C)C)C(=O)NCC(=O)N1CCC[C@H]1C(=O)N[C@@H](C)C(=O)NCC(=O)N[C@@H](CCCCN)C(=O)N[C@@H](CC(=O)O)C(=O)NCC(=O)N[C@@H](CCC(=O)O)C(=O)N[C@@H](C)C(=O)NCC(=O)N[C@@H](C)C(=O)N[C@@H](CCC(N)=O)C(=O)NCC(=O)N1CCC[C@H]1C(=O)N1CCC[C@H]1C(=O)NCC(=O)N1CCC[C@H]1C(=O)N[C@@H](C)C(=O)NCC(=O)N1CCC[C@H]1C(=O)N[C@@H](C)C(=O)NCC(=O)N[C@@H](CCC(=O)O)C(=O)N[C@@H](CCCNC(=N)N)C(=O)O` [compound 12] (H-GERGVPGPPGAVGPAGKDGEAGAQGPPGPAGPAGER-OH; N-terminus and C-terminus assumed) registered a 24h penetration amount of 2613.34 µg.
With `CC[C@H](C)[C@H](NC(=O)CN)C(=O)N[C@@H](C)C(=O)NCC(=O)N[C@@H](CCC(N)=O)C(=O)N[C@@H](CCCNC(=N)N)C(=O)NCC(=O)N[C@H](C(=O)N[C@H](C(=O)NCC(=O)N[C@@H](CC(C)C)C(=O)N1CCC[C@H]1C(=O)NCC(=O)N[C@@H](CCC(N)=O)C(=O)N[C@@H](CCCNC(=N)N)C(=O)NCC(=O)N[C@@H](CCC(=O)O)C(=O)N[C@@H](CCCNC(=N)N)C(=O)NCC(=O)N[C@@H](Cc1ccccc1)C(=O)N1CCC[C@H]1C(=O)NCC(=O)N[C@@H](CC(C)C)C(=O)N1CCC[C@H]1C(=O)NCC(=O)N1CCC[C@H]1C(=O)N[C@@H](CO)C(=O)NCC(=O)N[C@@H](CCC(=O)O)C(=O)N1CCC[C@H]1C(=O)NCC(=O)N[C@@H](CCCCN)C(=O)N[C@@H](CCC(N)=O)C(=O)NCC(=O)N1CCC[C@H]1C(=O)N[C@@H](CO)C(=O)O)C(C)C)C(C)C` [compound 20] (H-GIAGQRGVVGLPGQRGERGFPGLPGPSGEPGKQGPS-OH; N-terminus and C-terminus assumed) the figure was 2509.11 µg.
The value for `CC[C@H](C)[C@H](NC(=O)CNC(=O)[C@H](CCC(N)=O)NC(=O)[C@@H]1CCCN1C(=O)CNC(=O)[C@@H]1CCCN1C(=O)[C@@H](NC(=O)CNC(=O)[C@@H]1CCCN1C(=O)[C@H](C)NC(=O)CNC(=O)[C@H](C)NC(=O)[C@@H]1CCCN1C(=O)CNC(=O)[C@H](CC(=O)O)NC(=O)[C@H](C)NC(=O)CNC(=O)[C@@H]1CCCN1C(=O)[C@H](CO)NC(=O)CN)[C@@H](C)O)C(=O)N[C@@H](C)C(=O)NCC(=O)N[C@@H](CCC(N)=O)C(=O)N[C@@H](CCCNC(=N)N)C(=O)NCC(=O)N[C@H](C(=O)N[C@H](C(=O)NCC(=O)N[C@@H](CC(C)C)C(=O)N1CCC[C@H]1C(=O)NCC(=O)N[C@@H](CCC(N)=O)C(=O)N[C@@H](CCCNC(=N)N)C(=O)NCC(=O)N[C@@H](CCC(=O)O)C(=O)N[C@@H](CCCNC(=N)N)C(=O)O)C(C)C)C(C)C` [compound 19] (H-GSPGADGPAGAPGTPGPQGIAGQRGVVGLPGQRGER-OH; N-terminus and C-terminus assumed) was 2432.23 µg; that for `CC(C)C[C@H](NC(=O)CNC(=O)[C@@H](NC(=O)[C@@H]1CCCN1C(=O)CNC(=O)[C@@H]1CCCN1C(=O)[C@H](CCC(=O)O)NC(=O)CNC(=O)[C@H](CCCNC(=N)N)NC(=O)[C@H](C)NC(=O)CNC(=O)[C@H](CCCNC(=N)N)NC(=O)[C@H](CCCCN)NC(=O)CNC(=O)[C@H](CCC(=O)O)NC(=O)[C@H](CCC(=O)O)NC(=O)CNC(=O)[C@H](C)NC(=O)[C@@H]1CCCN1C(=O)CNC(=O)[C@@H]1CCCN1C(=O)[C@@H]1CCCN1C(=O)CNC(=O)[C@H](CCC(N)=O)NC(=O)[C@@H](NC(=O)CNC(=O)[C@@H](NC(=O)[C@@H]1CCCN1C(=O)CN)C(C)C)C(C)C)[C@@H](C)O)C(=O)N1CCC[C@H]1C(=O)NCC(=O)N1CCC[C@H]1C(=O)N1CCC[C@H]1C(=O)NCC(=O)N[C@@H](CCC(=O)O)C(=O)N[C@@H](CCCNC(=N)N)C(=O)O` [compound 7] (H-GPVGVQGPPGPAGEEGKRGARGEPGPTGLPGPPGER-OH; N-terminus and C-terminus assumed) was 2189.90 µg.
With `C[C@H](NC(=O)CNC(=O)[C@@H](NC(=O)[C@H](C)NC(=O)CNC(=O)[C@H](CC(=O)O)NC(=O)[C@H](CC(N)=O)NC(=O)CNC(=O)[C@H](CCCNC(=N)N)NC(=O)[C@H](C)NC(=O)CNC(=O)[C@H](C)NC(=O)[C@@H]1CCCN1C(=O)CNC(=O)[C@@H]1CCCN1C(=O)[C@H](C)NC(=O)CNC(=O)[C@@H]1CCCN1C(=O)[C@H](CCCNC(=N)N)NC(=O)CNC(=O)[C@H](CCCNC(=N)N)NC(=O)[C@H](CCC(=O)O)NC(=O)CN)[C@@H](C)O)C(=O)N[C@@H](C)C(=O)NCC(=O)N1CCC[C@H]1C(=O)N1CCC[C@H]1C(=O)NCC(=O)N1CCC[C@H]1C(=O)N[C@H](C(=O)NCC(=O)N1CCC[C@H]1C(=O)N[C@@H](C)C(=O)NCC(=O)N1CCC[C@H]1C(=O)N1CCC[C@H]1C(=O)O)[C@@H](C)O` [compound 6] (H-GERGRPGAPGPAGARGNDGATGAAGPPGPTGPAGPP-OH; N-terminus and C-terminus assumed) the figure was 2233.35 µg.
